Results on 16 compounds are retold here after patent US20240109891A1, “NOVEL SUBSTITUTED TRICYCLIC AZA-HETEROCYCLES AS SOS1 INHIBITORS” (Viva Star Biosciences (Suzhou) Co., Ltd., priority 2021, published 2024).

Experiment [1] concerns the target T1, KRAS-WT and SOS1 proteins (Homo sapiens, UniProt Q07889).
T1 construct: purchased Cisbio 63ADK000CB15PEG
T1 sequence (Q07889 1-1333): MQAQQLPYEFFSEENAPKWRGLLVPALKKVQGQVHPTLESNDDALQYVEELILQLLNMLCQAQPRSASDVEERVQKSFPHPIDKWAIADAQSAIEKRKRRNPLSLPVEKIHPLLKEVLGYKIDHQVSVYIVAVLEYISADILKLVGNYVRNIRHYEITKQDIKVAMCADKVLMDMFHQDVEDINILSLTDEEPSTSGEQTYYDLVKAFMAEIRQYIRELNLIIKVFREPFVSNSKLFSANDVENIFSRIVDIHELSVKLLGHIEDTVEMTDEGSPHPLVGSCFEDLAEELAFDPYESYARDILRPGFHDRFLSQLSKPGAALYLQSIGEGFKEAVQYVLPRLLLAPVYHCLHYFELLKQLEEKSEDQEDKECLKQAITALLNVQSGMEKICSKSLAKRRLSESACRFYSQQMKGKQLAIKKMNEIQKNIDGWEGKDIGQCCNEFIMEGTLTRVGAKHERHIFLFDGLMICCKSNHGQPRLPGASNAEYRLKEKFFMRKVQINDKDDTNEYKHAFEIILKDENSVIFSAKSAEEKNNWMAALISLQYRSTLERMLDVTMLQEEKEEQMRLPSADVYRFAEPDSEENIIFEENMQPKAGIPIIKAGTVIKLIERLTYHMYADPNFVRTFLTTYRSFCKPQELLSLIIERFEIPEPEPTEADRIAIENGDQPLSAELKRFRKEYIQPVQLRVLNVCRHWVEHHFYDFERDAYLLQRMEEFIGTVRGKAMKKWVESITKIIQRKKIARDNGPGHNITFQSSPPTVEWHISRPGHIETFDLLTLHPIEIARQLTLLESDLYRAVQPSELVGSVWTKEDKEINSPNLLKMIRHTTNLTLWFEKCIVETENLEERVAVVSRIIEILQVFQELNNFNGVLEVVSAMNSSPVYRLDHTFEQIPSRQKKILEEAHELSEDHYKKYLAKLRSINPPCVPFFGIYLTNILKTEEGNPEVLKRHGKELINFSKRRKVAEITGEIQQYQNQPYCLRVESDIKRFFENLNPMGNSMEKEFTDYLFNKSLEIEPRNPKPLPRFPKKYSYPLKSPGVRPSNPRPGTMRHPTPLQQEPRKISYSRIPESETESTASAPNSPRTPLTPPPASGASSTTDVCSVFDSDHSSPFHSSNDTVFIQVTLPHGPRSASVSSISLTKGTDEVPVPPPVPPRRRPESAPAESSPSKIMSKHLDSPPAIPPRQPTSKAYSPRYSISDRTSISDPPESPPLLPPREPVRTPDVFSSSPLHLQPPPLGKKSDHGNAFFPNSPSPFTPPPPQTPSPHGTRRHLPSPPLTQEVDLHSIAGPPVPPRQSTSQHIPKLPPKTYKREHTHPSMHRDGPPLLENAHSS
Put plainly: KRAS-WT/SOS1 binding assay (HTRF). The following applies: Tag1-SOS1 / Tag2-KRAS-WT, 10 μM GTP, read-out: Activity Data in Kras: SOS1 Assay, Wild Type. As for the experimental part:
(§1) KRAS-WT (or G12C/G12D/G12V)/SOS1 Binding Assay
(§2) Low IC50 values are indicative of high potency of the SOS1 inhibitor compounds in this assay setting.
(§3) The KRAS-WT (or G12C/G12D/G12V)/SOS1 binding assay is performed using an assay kit (Cisbio, Cat #63ADK000CB15PEG or 63ADK000CB16PEG/63ADK000CB17PEG/63ADK000CB18PEG) according to the procedure recommended by the manufacturer. • 1) Thaw and prepare the working solution of Tag1-SOS1 protein and Tag2-KRAS-WT (or G12C/G12D/G12V) protein with final concentration of 10 μM GTP (Sigma, Cat #V900868). • 2) Thaw and prepare the working solution of anti-Tag1-Tb^3+ anti-Tag2-XL665. • 3) Dispense 2 μL of serially diluted compound, 4 μL of Tag1-SOS1 protein and 4 μL of Tag2-KRAS-WT (or G12C/G12D/G12V) protein with GTP into a ProxiPlate-384 Plus, white 384-shallow well microplate (PerkinElmer, Cat #6008280). • 4) Incubate the plate for 15 minutes at room temperature. • 5) Dispense 10 μL of pre-mixed anti-Tag1-Tb^3+ and anti-Tag2-XL665 into the plate. • 6) Seal the plate and incubate for 2 hours at room temperature. • 7) Remove the plate sealer and read on PHERAstar FS (BMG LABTECH, PHERAstar FS). • 8) Calculate the ratio of the acceptor and donor emission signals for each individual well using the following equation.
(§4) [formula] • 9) IC50 values are fitted and calculated by HTRF signal values and log of compound concentrations to nonlinear regression [Log (inhibitor) vs. Response−Variable Slope (four parameters)] using the GraphPad Prism 8.0.

Experiment [2] addresses T2, KRAS G12D and SOS1 proteins (Homo sapiens, UniProt Q07889).
T2 construct: purchased Cisbio 63ADK000CB17PEG
T2 sequence (Q07889 1-1333): T1 sequence (Q07889 1-1333)
Nature of the experiment: KRAS-G12D/SOS1 binding assay (HTRF). The following applies: Tag1-SOS1 / Tag2-KRAS G12D, 10 μM GTP. As for the experimental part: as §1, §2, §3, §4
A general note: Time-resolved FRET reads energy transfer from a long-lived donor to a nearby acceptor.

Take `C[C@@H](Nc1nc2ccnn2c2cc(=O)n(C3(C)CC3)cc12)c1cccc(C(F)(F)CO)c1` [Example 61, (R)-5-((1-(3-(1,1-difluoro-2-hydroxyethyl)phenyl)ethyl)amino)-7-(1-methylcyclopropyl)pyrazolo[1,5-a]pyrido[3,4-e]pyrimidin-8(7H)-one]: the IC50 in experiment [1] and in experiment [2] was less than 100 nM in each case.

Turning to `Cc1nc(N[C@H](C)c2cccc(C(F)(F)F)c2)c2cc(O[C@H]3CCOC3)c3nncn3c2n1` [Example 17, 12-methyl-7-(oxolan-3-yloxy)-N-[(1R)-1-[3-(trifluoromethyl)phenyl]ethyl]-2,4,5,11,13-pentaazatricyclo[7.4.0.0^{2,6}]trideca-1(9),3,5,7,10,12-hexaen-10-amine], the IC50 in experiment [1] and in experiment [2] was 100 to 500 nM throughout.

Turning to `Cc1nc(N[C@H](C)c2cccc(C(F)(F)F)c2)c2cc(OC3CCOC3)c3c(cnn3C)c2n1` (stereo partly drawn) [Example 35, 2,7-dimethyl-6-(oxolan-3-yloxy)-N-[(1R)-1-[3-(trifluoromethyl)phenyl]ethyl]-7H-pyrazolo[3,4-h]quinazolin-4-amine], the IC50 in experiment [1] and in experiment [2] was 100 to 500 nM each time.

On to `C[C@@H](Nc1nc2ccnn2c2cc(=O)n([C@H]3CCOC3)cc12)c1cc(N)cc(C(F)(F)F)c1` [Example 70, 5-(((R)-1-(3-amino-5-(trifluoromethyl)phenyl)ethyl)amino)-7-((S)-tetrahydrofuran-3-yl)pyrazolo[1,5-a]pyrido[3,4-e]pyrimidin-8(7H)-one], for which the IC50 in experiment [1] and in experiment [2] was less than 100 nM throughout.

Consider `Cc1nc(N[C@H](C)c2cccc3c2CCC3(F)F)c2cc(-c3ccc(=O)n(C)c3)c3c(cnn3C)c2n1` [Example 25, (R)-5-(4-((1-(1,1-difluoro-2,3-dihydro-1H-inden-4-yl)ethyl)amino)-2,7-dimethyl-7H-pyrazolo[3,4-h]quinazolin-6-yl)-1-methylpyridin-2(1H)-one], for which the IC50 in experiment [1] and in experiment [2] was less than 100 nM throughout.

Regarding `COc1cc2c(cc1C1CCN(C(C)=O)CC1)c(N[C@H](C)c1cccc3c1CCC3(F)F)nc1ccnn12` [Example 52, (R)-1-(4-(5-((1-(1,1-difluoro-2,3-dihydro-1H-inden-4-yl)ethyl)amino)-8-methoxypyrazolo[1,5-a]quinazolin-7-yl)piperidin-1-yl)ethanone], the IC50 in experiment [1] and in experiment [2] was 100 to 500 nM in each case.

Regarding `C[C@@H](Nc1nc2ccnn2c2cc(=O)n([C@H]3CCOC3)cc12)c1cccc(C(F)(F)F)c1` [Example 69, 7-((S)-tetrahydrofuran-3-yl)-5-(((R)-1-(3-(trifluoromethyl)phenyl)ethyl)amino)pyrazolo[1,5-a]pyrido[3,4-e]pyrimidin-8(7H)-one], the IC50 in experiment [1] and in experiment [2] was 100 to 500 nM each time.

Consider `CC(=O)N1CCC(c2cc3c(N[C@H](C)c4cccc(C(F)(F)F)c4)nc(C)nc3n3cnnc23)CC1` [Example 9, (R)-1-(4-(2-methyl-4-((1-(3-(trifluoromethyl)phenyl)ethyl)amino)-[1,2,4]triazolo[4′,3′:1,6]pyrido[2,3-d]pyrimidin-6-yl)piperidin-1-yl)ethan-1-one], for which the IC50 in experiment [1] and in experiment [2] was less than 100 nM throughout.

With `Cc1nc(N[C@H](C)c2cccc(C(F)(F)CO)c2)c2cc(N3CC[C@H](O)C3)c3c(cnn3C)c2n1` [Example 43, (3S)-1-(4-{[(1R)-1-[3-(1,1-difluoro-2-hydroxyethyl)phenyl]ethyl]amino}-2,7-dimethyl-7H-pyrazolo[3,4-h]quinazolin-6-yl)pyrrolidin-3-ol], the IC50 in experiment [1] and in experiment [2] was less than 100 nM throughout.

With `Cc1nc(N[C@H](C)c2cc(N)cc(C(F)(F)F)c2)c2cc(O[C@H]3CCOC3)c3c(cnn3C)c2n1` [Example 37, N-((R)-1-(3-amino-5-(trifluoromethyl)phenyl)ethyl)-2,7-dimethyl-6-(((S)-tetrahydrofuran-3-yl)oxy)-7H-pyrazolo[3,4-h]quinazolin-4-amine], the IC50 in experiment [1] and in experiment [2] was less than 100 nM throughout.

As to `C[C@@H](Nc1nc(C(F)(F)F)nc2c1cc(-c1ccc(=O)n(C)c1)c1c2cnn1C)c1cc(F)cc(C(F)(F)CO)c1` [Example 33, (R)-5-(4-((1-(3-(1,1-difluoro-2-hydroxyethyl)-5-fluorophenyl)ethyl)amino)-7-methyl-2-(trifluoromethyl)-7H-pyrazolo[3,4-h]quinazolin-6-yl)-1-methylpyridin-2(1H)-one], the IC50 in experiment [1] and in experiment [2] was 100 to 500 nM in each case.

Turning to `COc1cc2c(cc1O[C@H]1CCOC1)c(N[C@H](C)c1cc(N)cc(C(F)(F)F)c1)nc1cncn12` [Example 57, N—((R)-1-(3-amino-5-(trifluoromethyl)phenyl)ethyl)-8-methoxy-7-(((S)-tetrahydrofuran-3-yl)oxy)imidazo[1,5-a]quinazolin-5-amine], the IC50 in experiment [1] and in experiment [2] was 100 to 500 nM throughout.

Take `COCC(=O)N1CCC(c2cc3c(N[C@H](C)c4cccc(C(F)(F)CO)c4)nc(C)nc3n3cnnc23)CC1` [Example 11, (R)-1-(4-(4-((1-(3-(1,1-difluoro-2-hydroxyethyl)phenyl)ethyl)amino)-2-methyl-[1,2,4]triazolo[4′,3′:1,6]pyrido[2,3-d]pyrimidin-6-yl)piperidin-1-yl)-2-methoxyethan-1-one]: the IC50 in experiment [1] and in experiment [2] was less than 100 nM each time.

With `COc1cc2c(cc1O[C@H]1CCOC1)c(N[C@H](C)c1cccc(C(F)(F)F)c1)nc1ccnn12` [Example 54, 8-methoxy-7-[(3 S)-oxolan-3-yloxy]-N-[(1R)-1-[3-(trifluoromethyl)phenyl]ethyl]pyrazolo[1,5-α]quinazolin-5-amine], the IC50 in experiment [1] and in experiment [2] was 500 to 5000 nM throughout.

For `COc1cc2c(cc1O[C@H]1CCOC1)c(N[C@H](C)c1cccc(C(F)(F)F)c1)nc1cncn12` [Example 56, 8-methoxy-7-(((S)-tetrahydrofuran-3-yl)oxy)-N—((R)-1-(3-(trifluoromethyl)phenyl)ethyl)imidazo[1,5-a]quinazolin-5-amine], the IC50 in experiment [1] and in experiment [2] was 500 to 5000 nM each time.

Turning to `Cc1nc(N[C@H](C)c2cccc(C(F)(F)CO)c2)c2cc(-c3ccc(=O)n(C)c3)c3c(cnn3C)c2n1` [Example 24, (R)-5-(4-((1-(3-(1,1-difluoro-2-hydroxyethyl)phenyl)ethyl)amino)-2,7-dimethyl-7H-pyrazolo[3,4-h]quinazolin-6-yl)-1-methylpyridin-2(1H)-one], the IC50 in experiment [1] and in experiment [2] was less than 100 nM throughout.
